# Data as given in patent US8536132B2, “Lymphatic zip codes in tumors and pre-malignant lesions” (Sanford-Burnham Medical Research Institute, priority 2006, dated 2013).
# Ends that are not written are not given here.
# What was measured:
# [1] = system: K14-HPV16/E2 cervical lesions; experiment: Distribution of fluorescent peptides in K14-HPV16/E2 mice with cervical lesions; assay type: in vivo, mouse; details: labeled peptide i.v.
# Method: The frozen sections were prepared for immunohistological analysis.
# [2] = system: PPC1, M12, DU145, and LNCaP orthotopic xenografts; experiment: Fluorescein-conjugated REA peptide homing to orthotopic human prostate cancer xenografts; assay type: in vivo, mouse
# Method: Custom immunization to produce a rabbit antiserum against mouse Prox-1 was performed by Proteintech Inc. New Zealand White rabbits were immunized with a fusion protein of GST-C-terminal fragment of Prox-1 protein. The antibody was affinity purified on the fusion protein and absorbed with GST. […] Antibodies against the lymphatic markers anti-LYVE-1 (Laakkonen et al., 2002) and anti-podoplanin (kindly provided by T. Petrova and K. Alitalo), rat monoclonal anti-mouse CD31 (BD Pharmingen), rat anti-mouse MECA-32 (Pharmingen), rabbit polyclonal anti-T7 phage, and rat anti-mouse VEGFR3 were used for immunohistochemical staining of frozen tissue sections as described (Joyce et al., 2003; Laakkonen et al., 2002). The corresponding secondary antibodies were added and incubated for 1 hr at room temperature: AlexaFluor-488 goat anti-rat or rabbit IgG (1:1000; Molecular Probes, Eugene, Oreg.), AlexaFluor-594 goat anti-rat or rabbit IgG (1:1000, Molecular Probes), AlexaFluor-594 donkey anti-mouse or goat IgG (1:1000, Molecular Probes), and AlexaFluor-488 donkey anti-mouse or goat IgG (1:1000; Molecular Probes), respectively. The slides were washed three times with PBS and mounted in Vectashield Mounting Medium with DAPI (Vector Laboratories, Burlingame, Calif.). […]
substance,measurement,setting,value
"FITC-REA: fluorescein-labeled REA peptide (CREAGRKAC) (not fully specified (N-terminus); cysteine pairing not given here; also: FITC label, position not given here)",fluorescent peptide in K14-HPV16/E2 cervical lesions/tumors (in words),[1],homed to a lesser extent
same,"fluorescent peptide in PPC1, M12, DU145, LNCaP orthotopic xenografts",[2]; fluorescein-conjugated peptide,positive
same,co-localization with lymphatic vessels in orthotopic prostate tumor xenografts,[2]; immunohistochemical analysis,co-localized with lymphatic vessels
